Data from patent US12357611B2, “Sulcardine administration for treatment of acute atrial fibrillation” (HUYABIO International, LLC, priority 2018, dated 2025).
Where a name gives a salt, the structure may show the parent alone.

Legend:
healthy subjects [1] = assay: Phase 1 single ascending iv dose trial: continuous 12-lead Holter ECG, baseline and placebo subtracted (ΔΔ) ECG intervals at Cmax; type: in vivo, human; conditions: single iv doses 20 to 600 mg
Experimental: (§1) HBI-3000 (sulcardine sulfate) was administered to human subjects according to the protocol provided in ClinicalTrials.gov Identifier: NCT03397641. That protocol is incorporated herein by reference in its entirety.
(§2) Objective: Provided herein are the safety, tolerability, pharmacokinetics and electrocardiogram (ECG) results of a Phase 1 single ascending dose trial of intravenous (iv) HBI-3000 in healthy subjects.
(§3) Methods: […] subjects were randomized to 6 cohorts of 8 subjects to receive 1 of 5 single ascending iv doses (Table 2) of HBI-3000 or placebo (6:2), with 2 cohorts receiving the 600 mg dose. Doses of RBI-3000 ranged from 20 mg (Cohort A), 60 mg (Cohort B), 180 mg (Cohort C), 360 mg (Cohort D), to 600 mg (Cohort E and F). Drug was a lyophilized powder, reconstituted to […] then diluted in saline for delivery via intravenous infusion as a 50 mL solution over 30 minutes.
Continuous 12-lead Holter ECG data were recorded at baseline and 11 time points thereafter. Mean baseline and placebo subtracted (ΔΔ) ECG intervals (QTcF, HR, PR, QRS, and P-wave duration [PDur]) and T-wave segments (J to T peak [JTp] and T peak to T end [TpTe]) were calculated at Cmax for each dose.
Table 2 summarizes ECG data at Cmax for each dose, as predicted by mixed-effects modeling. […] The increases in QRS and PDur are consistent with block of INa-Peak. […]

[2] = Phase 1 single ascending iv dose trial: pharmacokinetics (plasma sulcardine); type: in vivo, human; conditions: iv infusion, various dosages, FIG. 1
Experimental: as §1, §2, §3

healthy subjects [3] = assay: Phase 1 single ascending iv dose trial: safety and tolerability; type: in vivo; conditions: single iv doses 20 to 600 mg
Experimental: as §1, §2, §3

[4] = Chen et al.; cited from earlier work

Structure (SMILES)	dose dependence of ECG parameter changes (healthy subjects [1])	removal from plasma after Cmax ([2]; listed as sulcardine sulfate)	tolerability, dose limiting adverse events or arrhythmias (healthy subjects [3])	removal from plasma after Cmax [2]	half-life for oral administration [4]
COc1ccc(S(=O)(=O)NCc2cc(CN3CCCC3)c(O)c(CN3CCCC3)c2)cc1 [HBI-3000, sulcardine sulfate]	dose-proportional changes in all ECG parameters	quickly removed or isolated from plasma	well tolerated with no dose limiting adverse events or arrhythmias observed	–	–
COc1ccc(S(=O)(=O)NCc2cc(CN3CCCC3)c(O)c(CN3CCCC3)c2)cc1 [sulcardine, N-[4-hydroxy-3,5-bis(1-pyrrolidinylmethyl)benzyl]-4-methoxybenzenesulfonamide]	–	–	–	largely removed or isolated from plasma at 1.0 hours	about 16 hours
